Laboratory results as given in patent US20090082266A1, “CONJUGATE OF WATER-SOLUBLE HYALURONIC ACID MODIFICATION PRODUCT WITH GLP-A ANALOGUE” (priority 2005, published 2009).

Experiments:
[1] = test system: BKS. Cg −+Lepr^db/+Lepr^db/Jcl mice; assay: Oral glucose tolerance test, subcutaneous administration (Example 6-5); format: in vivo; details: 3000 μg/kg sc, AUC up to 2 hours, mean
Method: After 8 weeks old male BKS. Cg −+Lepr^db/+Lepr^db/Jcl mice (Japan CLEA Co. Ltd.) were fasted overnight to 24 hours, the HA-GLP-1 analogue 2 conjugate solution, which was obtained in Example 6-2 and diluted with solvent Z (at a dose as peptide, 300 μg/kg), or solvent Z was subcutaneously administered to the mice. After 6, 24 or 48 hours of the subcutaneous administration, 50% glucose solution (Otsuka Pharamaceutical Co. Ltd.) was orally administered at a dose of 3 g glucose/kg. […] After 2 minutes or 4 hours and 2 minutes of the subcutaneous administration (in the case of solvent Z, after 1 or 5 hours) 50% glucose solution was orally administered at a dose of 3 g glucose/kg. Tests were carried out on groups consisting of 6 mice per group.
(§1) Before the glucose administration (0 hour), 0.5, 1 and 2 hours after the administration, blood was collected from the tail, and the blood glucose level was measured by an enzymatic assay (hexokinase method; Reagent, Autosera S GLU (Daiichi Pure Chemicals Co. Ltd.); Instrument, BioMajesty JCA-BM1250 (JEOL Co. Ltd.)).
The blood glucose lowering rate was calculated according to the formula described in Example 5-4.

[2] = in vivo, iv; cited from earlier work
[3] = test system: BKS. Cg −+Lepr^db/+Lepr^db/Jcl mice; assay: Oral glucose tolerance test, intravenous administration (Example 5-4); format: in vivo; details: glucose 3 g/kg orally 1 minute later, AUC up to 4 hours, mean
Method: After 8 weeks old male BKS. Cg −+Lepr^db/+Lepr^db/Jcl mice (Japan CLEA Co. Ltd.) were fasted overnight, the HA-GLP-1 analogue 1 conjugate solution, which was obtained in Example 5-2 and diluted with solvent Z (at doses as peptide, 1.5 μg/kg, 15 μg/kg or 150 μg/kg), or solvent Z was intravenously administered to the mice. After 1 minute of the intravenous administration, 50% glucose solution (Otsuka Pharamaceutical Co. Ltd.) was orally administered at a dose of 3 g glucose/kg. […] After 1 minute of the intravenous administration, 50% glucose solution was orally administered at a dose of 3 g glucose/kg. Tests were carried out on groups consisting of 6 mice per group.
as §1, with “0.5, 1, 2” for “0.5, 1”, “and 4” for “and 2”
The blood glucose lowering rate was calculated according to the following formula.

GLP-1 analogue 0: variant of native GLP-1 (human, 7-37) in which the second (position 8) alanine was converted to glycine (HGEGTFTSDVSSYLEGQAAKEFIAWLVKGRG; Glucagon-like peptide 1(7-37); UniProt P01275 98-128, looked up, variant A8G)
Blood glucose lowering rate (%) ([1]; glucose 3 g/kg orally 2 Minutes after administration): 102%
Blood glucose lowering rate (%) ([1]; glucose 3 g/kg orally 4 Hour 2 Minutes after administration): 18%
half life [2]: 1 to 5 min

GLP-1: native GLP-1 (Human, 7-37; Peptide Institute, Inc.)
Blood glucose lowering rate (%) ([3]; 150 μg/kg iv (conjugate: as peptide)): 15%
Blood glucose lowering rate (%) ([3]; 1500 μg/kg iv): 60%
